Experimental data as given in US11330821B2, “Herbicidal compounds” (Syngenta Participations AG, priority 2015, dated 2022).

What was measured:
Type in all cases: in vivo
Details in all cases: post-emergence spray, evaluated after 13 days
Solanum nigrum (SOLNI) = experiment: Post-emergence efficacy, Solanum nigrum
Procedure: (§1) B1 Post-Emergence Efficacy
(§2) Seeds of a variety of test species are shown in standard soil in pots:—Solanum nigrum (SOLNI), Amaranthus retroflexus (AMARE), Setaria faberi (SETFA), Echinochloa crus-galli (ECHCG), Ipomoea hederacea (IPOHE), Lolium perenne (LOLPE). After 8 days cultivation (post-emergence) under controlled conditions in a glasshouse (at 24/16° C., day/night; 14 hours light; 65% humidity), the plants are sprayed with an aqueous spray solution derived from the formulation of the technical active ingredient in acetone/water (50:50) solution containing 0.5% Tween 20 (polyoxyethylene sorbitan monolaurate, CAS RN 9005-64-5). Compounds are applied at 1000 and 62.5 g/ha. The test plants are then grown in a glasshouse under controlled conditions in a glasshouse (at 24/16° C., day/night; 14 hours light; 65% humidity) and watered twice daily. After 13 days, the test is evaluated for the percentage damage caused to the plant. The biological activities are assessed on a five point scale (5=80-100%; 4=60-79%; 3=40-59%; 2=20-39%; 1=0-19%).

Setaria faberi (SETFA) = experiment: Post-emergence efficacy, Setaria faberi
Procedure: as §1, §2

[1] = test system: Echinochloa crus-galli (ECHCG); experiment: Post-emergence efficacy, Echinochloa crus-galli
Procedure: as §1, §2

[2] = test system: Amaranthus retroflexus (AMARE); experiment: Post-emergence efficacy, Amaranthus retroflexus
Procedure: as §1, §2

[3] = test system: Ipomoea hederacea (IPOHE); experiment: Post-emergence efficacy, Ipomoea hederacea
Procedure: as §1, §2

Lolium perenne (LOLPE) = experiment: Post-emergence efficacy, Lolium perenne
Procedure: as §1, §2

Cc1nn(C)c(=O)c(-c2c(Cl)c(Cl)cc(Cl)c2OCc2cnc(Cl)s2)c1O [Compound 5.01]
SOLNI percentage damage caused to the plant (five point scale) (Solanum nigrum (SOLNI); 62.5 g/ha): 5 (5=80-100%) | SOLNI percentage damage caused to the plant (five point scale) (Solanum nigrum (SOLNI); 1000 g/ha): 5 (5=80-100%) | SETFA percentage damage caused to the plant (five point scale) (Setaria faberi (SETFA); 62.5 g/ha): 2 (2=20-39%) | SETFA percentage damage caused to the plant (five point scale) (Setaria faberi (SETFA); 1000 g/ha): 5 (5=80-100%) | ECHCG percentage damage caused to the plant (five point scale) ([1]; 62.5 g/ha): 2 (2=20-39%) | ECHCG percentage damage caused to the plant (five point scale) ([1]; 1000 g/ha): 5 (5=80-100%) | AMARE percentage damage caused to the plant (five point scale) ([2]; 62.5 g/ha): 3 (3=40-59%) | AMARE percentage damage caused to the plant (five point scale) ([2]; 1000 g/ha): 5 (5=80-100%) | IPOHE percentage damage caused to the plant (five point scale) ([3]; 62.5 g/ha): 5 (5=80-100%) | IPOHE percentage damage caused to the plant (five point scale) ([3]; 1000 g/ha): 5 (5=80-100%) | LOLPE percentage damage caused to the plant (five point scale) (Lolium perenne (LOLPE); 62.5 g/ha): 2 (2=20-39%) | LOLPE percentage damage caused to the plant (five point scale) (Lolium perenne (LOLPE); 1000 g/ha): 5 (5=80-100%)

Cc1csc(COc2c(Cl)ccc(Cl)c2-c2c(O)c(C)nn(C)c2=O)n1 [Compound 1.13]
SOLNI percentage damage caused to the plant (five point scale) (Solanum nigrum (SOLNI); 62.5 g/ha): 4 (4=60-79%) | SOLNI percentage damage caused to the plant (five point scale) (Solanum nigrum (SOLNI); 1000 g/ha): 5 (5=80-100%) | SETFA percentage damage caused to the plant (five point scale) (Setaria faberi (SETFA); 62.5 g/ha): 4 (4=60-79%) | SETFA percentage damage caused to the plant (five point scale) (Setaria faberi (SETFA); 1000 g/ha): 5 (5=80-100%) | ECHCG percentage damage caused to the plant (five point scale) ([1]; 62.5 g/ha): 3 (3=40-59%) | ECHCG percentage damage caused to the plant (five point scale) ([1]; 1000 g/ha): 5 (5=80-100%) | AMARE percentage damage caused to the plant (five point scale) ([2]; 62.5 g/ha): 3 (3=40-59%) | AMARE percentage damage caused to the plant (five point scale) ([2]; 1000 g/ha): 4 (4=60-79%) | IPOHE percentage damage caused to the plant (five point scale) ([3]; 62.5 g/ha): 4 (4=60-79%) | IPOHE percentage damage caused to the plant (five point scale) ([3]; 1000 g/ha): 5 (5=80-100%) | LOLPE percentage damage caused to the plant (five point scale) (Lolium perenne (LOLPE); 62.5 g/ha): 2 (2=20-39%) | LOLPE percentage damage caused to the plant (five point scale) (Lolium perenne (LOLPE); 1000 g/ha): 4 (4=60-79%)

Cc1cnc(COc2c(Cl)ccc(Cl)c2-c2c(O)c(C)nn(C)c2=O)cn1 [Compound 1.21]
SOLNI percentage damage caused to the plant (five point scale) (Solanum nigrum (SOLNI); 62.5 g/ha): 3 (3=40-59%) | SOLNI percentage damage caused to the plant (five point scale) (Solanum nigrum (SOLNI); 1000 g/ha): 4 (4=60-79%) | SETFA percentage damage caused to the plant (five point scale) (Setaria faberi (SETFA); 62.5 g/ha): 3 (3=40-59%) | SETFA percentage damage caused to the plant (five point scale) (Setaria faberi (SETFA); 1000 g/ha): 5 (5=80-100%) | ECHCG percentage damage caused to the plant (five point scale) ([1]; 62.5 g/ha): 1 (1=0-19%) | ECHCG percentage damage caused to the plant (five point scale) ([1]; 1000 g/ha): 4 (4=60-79%) | AMARE percentage damage caused to the plant (five point scale) ([2]; 62.5 g/ha): 2 (2=20-39%) | AMARE percentage damage caused to the plant (five point scale) ([2]; 1000 g/ha): 3 (3=40-59%) | IPOHE percentage damage caused to the plant (five point scale) ([3]; 62.5 g/ha): 4 (4=60-79%) | IPOHE percentage damage caused to the plant (five point scale) ([3]; 1000 g/ha): 5 (5=80-100%) | LOLPE percentage damage caused to the plant (five point scale) (Lolium perenne (LOLPE); 62.5 g/ha): 1 (1=0-19%) | LOLPE percentage damage caused to the plant (five point scale) (Lolium perenne (LOLPE); 1000 g/ha): 2 (2=20-39%)

Cc1nn(C)c(=O)c(-c2c(F)ccc(Cl)c2OCc2ccncc2)c1O [Compound 1.24]
SOLNI percentage damage caused to the plant (five point scale) (Solanum nigrum (SOLNI); 62.5 g/ha): 4 (4=60-79%) | SOLNI percentage damage caused to the plant (five point scale) (Solanum nigrum (SOLNI); 1000 g/ha): 5 (5=80-100%) | SETFA percentage damage caused to the plant (five point scale) (Setaria faberi (SETFA); 62.5 g/ha): 1 (1=0-19%) | SETFA percentage damage caused to the plant (five point scale) (Setaria faberi (SETFA); 1000 g/ha): 5 (5=80-100%) | ECHCG percentage damage caused to the plant (five point scale) ([1]; 62.5 g/ha): 3 (3=40-59%) | ECHCG percentage damage caused to the plant (five point scale) ([1]; 1000 g/ha): 5 (5=80-100%) | AMARE percentage damage caused to the plant (five point scale) ([2]; 62.5 g/ha): 2 (2=20-39%) | AMARE percentage damage caused to the plant (five point scale) ([2]; 1000 g/ha): 5 (5=80-100%) | IPOHE percentage damage caused to the plant (five point scale) ([3]; 62.5 g/ha): 4 (4=60-79%) | IPOHE percentage damage caused to the plant (five point scale) ([3]; 1000 g/ha): 5 (5=80-100%) | LOLPE percentage damage caused to the plant (five point scale) (Lolium perenne (LOLPE); 62.5 g/ha): 1 (1=0-19%) | LOLPE percentage damage caused to the plant (five point scale) (Lolium perenne (LOLPE); 1000 g/ha): 5 (5=80-100%)
